Assay results: patent US12011442B2, “Solid-state forms of Abemaciclib, their use and preparation” (MACFARLAN SMITH LIMITED, priority 2018, dated 2024)

What was measured:
Assay type in all cases: physicochemical
[1] = Solid-state stability of the crystalline solvate (observation); conditions: desolvates on exposure to air
Protocol: A variable methanol solvate of ABC is produced by dissolving ABC in warm (55° C.) methanol (about 200 mg/mL) and then cooling (−5° C.) to force precipitation of a white powder. The resulting powder is examined by XRPD while still wet (FIG. 1, top pattern). Single crystals are grown by slow evaporation of methanol into an antisolvent (preferably ethyl acetate) or by slowly cooling a saturated solution from 50° C. to 0° C. over the course of several hours, and not exposed to air, to obviate evaporation of the solvate and the collapse of the crystalline lattice. Single crystal X-ray diffraction (SCXRD) data is undertaken at 100° K to improve diffraction quality as well as prevent desolvation. […] The single crystal is determined to be Form I of variable methanol solvate of ABC (FIG. 2) having about 2.5-3 molecules of methanol, preferably about 2.75 molecules of methanol. Form I of variable methanol solvate of ABC is unstable.

[2] = Dynamic vapor sorption (DVS) / sorption isotherm
[3] = Thermogravimetric analysis (TGA), onset of decomposition; conditions: heating rate 10.0° C./min, nitrogen; FIG. 6
Protocol: Analysis—TGA (Thermo Gravimetric Analysis) TGA measurements are recorded using TA Q500 instrument. The samples are weighed in aluminum pans. TGA investigations are performed at a heating rate of 10.0° C./min over a temperature range of 30-350° C., purging with nitrogen at a flow rate of 60 mL/min.

stability of the solid-state form [1] | H2O absorbed by weight (DVS) ([2]; between 0-90% relative humidity (RH), FIG. 7) | drop in weight during desorption ([2]; desorption at 20% RH, consistent with loss of a molecule of water) | H2O lost in one desorption step (sorption isotherm) ([2]; desorption between 30-20% RH, FIG. 8) [%] | transformation from Form II anhydrous ABC to Form III of hydrate of ABC ([2]; humidity sorption/desorption) | onset of decomposition (TGA) [3] | Structure (SMILES)
unstable | – | – | – | – | – | CCN1CCN(Cc2ccc(Nc3ncc(F)c(-c4cc(F)c5nc(C)n(C(C)C)c5c4)n3)nc2)CC1
– | about 8% | about 4% | 4 | reversible | about 320 °C | CCN1CCN(Cc2ccc(Nc3ncc(F)c(-c4cc(F)c5nc(C)n(C(C)C)c5c4)n3)nc2)CC1 [Form II anhydrous ABC]
